What was measured:
Type in all cases: cell-based
mouse 3T3-L1 cell = test: Mouse fibroblast proliferation (alamar Blue); settings: 48 hours
Method: The cell employed was a mouse 3T3-L1 cell. This cell was inoculated. at 3×10^4 cells/mL to a commercially available 24-well culture plate (353047, FALCON, Becton, Dickinson and Company Japan), where it was cultured in a commercially available cell culture medium (D-MEM, 11885084, GIBCO, Life Technologies Japan Ltd.) supplemented with 10% bovine serum (16010159, GIBCO, Life Technologies Japan Ltd.). The cell was cultured for about 6 hours in 5% CO2 and saturated water vapor atmosphere at 37° C. Thereafter, the culture medium for culturing the mouse fibroblast was switched to a medium which was the above-mentioned cell culture medium supplemented with 0.5% bovine serum (hereinafter referred to as “mouse fibroblast proliferation evaluation medium”), where the mouse fibroblast was cultured for 12 hours in 5% CO2 and saturated water vapor atmosphere at 37° C. When investigating the effects of saturated and unsaturated fatty acids on the proliferation of the fibroblast, 5 μM and 10 μM palmitic acid (S-33, Wako Pure Chemical Industries, Ltd.), 5 μM and 10 μM oleic acid (07501, Sigma Aldrich Japan K.K.) or 1 μM, 3 μM and 10 μM stearic acid ([…], Sigma Aldrich Japan. K.K.) was added after 12 hours to the mouse fibroblast proliferation evaluation medium), and the fibroblast was cultured for 48 hours in 5% CO2 and saturated water vapor atmosphere at 37° C. As a control, the cell was cultured in a culture medium without these saturated fatty acids and unsaturated fatty acid. […] The cell proliferation rate (%) was calculated as a percentage of the quotient obtained by dividing the fluorescent intensity of the alamar Blue under each experiment condition by the fluorescent intensity in the control group supplemented with no saturated or unsaturated fatty acids.

[1] = test system: type I collagen α chain gene expression; test: Type I collagen α chain gene expression in mouse fibroblast (real-time PCR); settings: for suppressive effect on the gene expression of type I collagen α chain: data not shown
Method: (§1) The cell culture and the addition of palmitic acid were conducted similarly to Example 1. The mouse fibroblast was inoculated to and incubated in a commercially available 12-well culture plate (353043, FALCON, Becton, Dickinson and Company Japan) at 3×10^4 cells/mL. The culture medium was removed using an aspirator, and each well was washed twice with each 2 ml of PBS. An RNA was extracted from each cell in each well using an RNeasy Protect Kit (74104, Qiagen) according to Manufacturer's instructions. A cDNA was produced according to a standard method and used in a real-time PCR. This real-time PCR employed LightCycler (registered trademark) FastStart DNA Master^PLUS SYBR Green I (Catalog No. 03 515 885 001, Roche Diagnostic K.K.). For amplifying type I collagen α chain, elastin, matrix metalloproteinase 13 and 28S rRNA genes, the forward and reverse primers of SEQ ID NO: 1 and 2, SEQ ID NO: 3 and 4, SEQ ID NO: 5 and 6 and SEQ ID NO: 7 and 8, respectively, were employed. The PCR was conducted under a reaction condition involving 1 cycle of 95° C. for 10 minutes and 35 cycles of 95° C. for 15 seconds, 60° C. for 5 seconds and 72° C. for 5 seconds. The expression levels of type I collagen α chain, elastin and matrix metalloproteinase 13 gene were analyzed by using LightCycler Software Ver. 3.5 (Roche Diagnostic K.K.) and normalized on the basis of the expression level of 28S rRNA. The gene expressions level of the type I collagen α chain, elastin and matrix metalloproteinase 13 were calculated as percentages of the quotients obtained by dividing the gene expression rates (%) under each experimental condition by the gene expression levels in the control groups containing no palmitic acid.

elastin gene expression [2] = test: Elastin gene expression in mouse fibroblast (real-time PCR); settings: for suppressive effect on the gene expression of elastin: data not shown
Method: as §1

[3] = test system: matrix metalloproteinase 13 gene expression; test: Matrix metalloproteinase 13 gene expression in mouse fibroblast (real-time PCR); settings: for promotive effect on the gene expression of matrix metalloproteinase 13: data not shown
Method: as §1

human fibroblast = test: Human fibroblast proliferation (alamar Blue); settings: 5 μM to 30 μM, dependent on concentration (FIG. 7)
Method: Thereafter, alamar Blue (Trade mark, DAL1025, Invitrogen, Life Technologies Japan Ltd.) was added to the culture medium at a final concentration of 10%, and its supernatant was examined for the fluorescent intensity 2 hours later with an excitation wavelength of 544 nm and a fluorescent intensity of 590 nm in accordance with the manufacture's instruction. The cell proliferation rate (%) was calculated as a percentage of the quotient obtained by dividing the fluorescent intensity of the alamar Blue under each experiment condition by the fluorescent intensity in the control group supplemented with no saturated or unsaturated fatty acids. The cell culture, the addition of palmitic acid and the determination of the % of proliferation of the fibroblast were conducted similarly to Example 1. The human fibroblast (CC-2509, Lonza Japan Ltd.) was incubated for 6 hours in a commercially available cell culture medium (D-MEM, 11885084, GIBCO, Life Technologies Japan Ltd.) supplemented with 10% of fetal bovine serum (FBS) (Biowest). Thereafter, the culture medium for incubating the human fibroblast was switched to the cell culture medium supplemented with 0.5% of fetal bovine serum (hereinafter referred to as “human fibroblast proliferation evaluation medium”) and the human fibroblast was incubated at 37° C. and 5% CO2 under a saturated water vapor atmosphere for 12 hours. […]

[4] = test system: type I collagen α chain gene expression; test: Type I collagen α chain gene expression in human fibroblast (real-time PCR); settings: 10 μM and 30 μM, dependent on concentration (FIG. 8)
Method: (§2) The culture medium was removed using an aspirator, and each well was washed twice with each 2 ml of PBS. An RNA was extracted from each cell in each well using an RNeasy Protect Kit (74104, Qiagen) according to Manufacturer's instructions. A cDNA was produced according to a standard method and used in a real-time PCR. This real-time PCR employed LightCycler (registered trademark) FastStart DNA Master^PLUS SYBR Green I (Catalog No. 03 515 885 001, Roche Diagnostic K.K.). […] The expression levels of type I collagen α chain, elastin and matrix metalloproteinase 13 gene were analyzed by using LightCycler Software Ver. […] The gene expressions level of the type I collagen α chain, elastin and matrix metalloproteinase 13 were calculated as percentages of the quotients obtained by dividing the gene expression rates (%) under each experimental condition by the gene expression levels in the control groups containing no palmitic acid. […] The quantification of gene expression was conducted similarly to Example 2. […] The % gene expressions of the type I collagen α chain, elastin and matrix metalloproteinase 1 were calculated as percentages of the quotients obtained by dividing the gene expression levels under each experimental condition by the gene expression levels in the control groups containing no palmitic acid.

elastin gene expression [5] = test: Elastin gene expression in human fibroblast (real-time PCR); settings: 3 μM to 30 μM, dependent on concentration (FIG. 9)
Method: as §2

[6] = test system: matrix metalloproteinase 1 gene expression; test: Matrix metalloproteinase 1 gene expression in human fibroblast (real-time PCR); settings: 10 μM and 30 μM, dependent on concentration (FIG. 10)
Method: as §2

mouse fibroblast = test: Effect of EPA and palmitic acid on fibroblast proliferation (alamar Blue); settings: palmitic acid at 10 μM alone (FIG. 11)
Method: The cell employed was a mouse 3T3-L1 cell. This cell was inoculated. at 3×10^4 cells/mL to a commercially available 24-well culture plate (353047, FALCON, Becton, Dickinson and Company Japan), where it was cultured in a commercially available cell culture medium (D-MEM, 11885084, GIBCO, Life Technologies Japan Ltd.) supplemented with 10% bovine serum (16010159, GIBCO, Life Technologies Japan Ltd.). The cell was cultured for about 6 hours in 5% CO2 and saturated water vapor atmosphere at 37° C. Thereafter, the culture medium for culturing the mouse fibroblast was switched to a medium which was the above-mentioned cell culture medium supplemented with 0.5% bovine serum (hereinafter referred to as “mouse fibroblast proliferation evaluation medium”), where the mouse fibroblast was cultured for 12 hours in 5% CO2 and saturated water vapor atmosphere at 37° C. […] The cell proliferation rate (%) was calculated as a percentage of the quotient obtained by dividing the fluorescent intensity of the alamar Blue under each experiment condition by the fluorescent intensity in the control group supplemented with no saturated or unsaturated fatty acids. […]

promotive effect on the gene expression of matrix metalloproteinase 13 [3] | matrix metalloproteinase 13 gene expression ([3]; 10 μM, vs control (FIG. 6)) | matrix metalloproteinase 1 gene expression [6] | Compound | cell proliferation (mouse 3T3-L1 cell; 5 μM and 10 μM, vs control (FIG. 2)) | suppressive effect on the gene expression of type I collagen α chain [1] | suppressive effect on the gene expression of elastin (elastin gene expression [2]) | cell proliferation (mouse 3T3-L1 cell; 10 μM, vs control (FIG. 1)) | type I collagen α chain gene expression ([1]; 10 μM, vs control (FIG. 4)) | elastin gene expression (elastin gene expression [2]; 10 μM, vs control (FIG. 5)) | cell proliferation (human fibroblast) | type I collagen α chain gene expression [4] | elastin gene expression (elastin gene expression [5]) | cell proliferation (mouse fibroblast) | cell proliferation (mouse 3T3-L1 cell; 1 μM to 10 μM, vs control (FIG. 3))
did not have |  |  | CCCCCCCC/C=C\CCCCCCCC(=O)O [oleic acid] | statistically significant reduction | did not have a suppressive effect | did not have a suppressive effect |  |  |  |  |  |  |  | 
 | statistically significant increase | statistically significant increase | CCCCCCCCCCCCCCCC(=O)O [palmitic acid] |  |  |  | statistically significant reduction | statistically significant reduction | statistically significant reduction | statistically significant reduction | statistically significant reduction | statistically significant reduction | reduced markedly | 
did not have |  |  | CCCCCCCCCCCCCCCCCC(=O)O [stearic acid] |  | did not have a suppressive effect | did not have a suppressive effect |  |  |  |  |  |  |  | no statistically significant reduction
